Results: patent US11306102B2, “1,3-di-substituted ketene compound and application thereof” (BEBETTER MED INC., priority 2017, dated 2022)

Legend:
PPARδ = target: T1, PPARδ (Homo sapiens, UniProt Q03181); experiment: Hela cell/luciferase reporter gene method, PPARδ agonist activity; type: cell-based; conditions: Hela cells, pPPRE3-TK-Luciferase reporter, 24 hrs incubation; read-out: agonistic activity on PPARδ (EC50)
T1 construct: expressed in transfected cells; host or cells: Hela cells
T1 sequence (Q03181 1-441): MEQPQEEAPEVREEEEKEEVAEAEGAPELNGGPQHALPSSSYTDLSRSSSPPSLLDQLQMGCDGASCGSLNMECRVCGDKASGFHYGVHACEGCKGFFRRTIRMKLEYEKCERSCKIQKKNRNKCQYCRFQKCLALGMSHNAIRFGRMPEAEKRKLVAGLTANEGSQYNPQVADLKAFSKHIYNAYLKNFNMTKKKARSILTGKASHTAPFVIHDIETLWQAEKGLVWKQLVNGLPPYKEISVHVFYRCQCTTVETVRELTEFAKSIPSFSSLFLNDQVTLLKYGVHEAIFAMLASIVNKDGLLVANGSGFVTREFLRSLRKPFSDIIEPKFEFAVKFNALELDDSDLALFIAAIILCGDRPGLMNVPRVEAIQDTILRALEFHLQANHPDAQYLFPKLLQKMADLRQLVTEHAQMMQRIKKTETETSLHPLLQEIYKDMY
Description: This example measures the biological activity of a PPAR agonist using the Hela cell/luciferase reporter gene method.
The target plasmids PCMV PPARα (Ampicillin+), PCMV PPARγ (Ampicillin+), PCMV PPARδ (Ampicillin+), and pPPRE3-TK-Luciferase (Ampicillin+) were introduced into DH5a competent cells by heat shock treatment, respectively. After being incubated for 1 hour at 37° C. with shaking (180 rpm), the cells were inoculated on LB agar solid medium containing antibiotic Ampicillin, and invertedly cultured at 37° C. for 12-16 hours. Then the monoclonal colony cultured on the medium was taken and inoculated into LB liquid medium for expanded culture. […] The plasmid obtained by centrifugation was suspended in TE buffer, and the plasmid concentration was measured and the mixture was stored at −20° C. Hela cells in the exponential phase were seeded in 6-well plates (8-10^5 cells/well), and after 6-8 hours of culture, the cells were transfected using Lipofectamine® 3000 Transfection Reagent (Invitrogen; #L3000015). A plasmid containing a PPAR binding site (peroxisome proliferator response element, PPRE) and a firefly luciferase gene (pPPRE3-TK-Luciferase) and PPAR expression vector were co-transfected into a Hela cell with a total amount of plasmid DNA of 2.5 ug (the mass ratio of each PPAR expression vector is pPPRE:PPARα=6:1, pPPRE:PPARδ=8:1, and pPPRE:PPARγ=2:1) to construct a drug screening cell model for PPAR agonists. PPAR was binded to the ligand and then binded to the peroxisome proliferator response element (PPRE), thereby initiating downstream firefly luciferase expression and its expression intensity was directly proportional to the degree of PPAR activation. The cells after 24 hours transfection were prepared into a cell suspension with a cell concentration of […] by a complete culture solution, and seeded into a 96-well plate with 100 ul per well. After overnight culture, the medium was changed to a medium containing 1% FBS. 10 mM candidate compound stock (1000×) were 4-fold diluted in DMSO for 8 points, then supplemented with medium containing 1% FBS to a final concentration of 50 uM (5×) by addition of 25 μl of 5× compound diluent to each well in different concentration gradients and incubated under 37° C., 5% CO2 incubator for 24 hrs. The 96-well plate was taken out and 30 μl of Bright-Glo™ Luciferase Assay System (Promega #E2620) was added to each well. The Luciferase luminescence intensity was measured by a SynergyH1 full-function microplate detector. The obtained data was used to calculate EC50 using GraphPad Prism 5.0 software to determine the biological activity of the compound.

[1] = Pharmacokinetic (PK) experiments after intragastric administration in rats; type: in vivo, SD rats
Description: Male SD rats, weighing 250-300 grams, were fasted overnight before testing. The test compound was dissolved in 30% sulfobutyl-R-cyclodextrin (SBE-β-CD) and administered intragastrically at a dose of 20 mg/kg. Blood was collected 15 minutes, 30 minutes, and 1, 2, 3, 4, […] and 24 hours after the administration. About 0.3 ml of blood was collected at each time point, placed in a centrifuge tube containing K2-EDTA (dipotassium ethylenediamine tetraacetate) and centrifuged (2,000 g, 10 minutes, 4° C.) to take the plasma, which was stored in an ultra-low temperature refrigerator at −80° C. A 50 μL plasma sample was mixed with 5 μl of internal standard (IS) and extracted with ethyl acetate. The residue was redissolved in acetonitrile after drying under vacuum. The sample was filtered and injected into an LC-MS/MS for analysis.

[2] = male, SD, rat, plasma, po, intragastric administration 20 mg/kg

EC50 (PPARδ): 335 nM
AUC(0-inf) [1, 2]: 1580 ng·h/mL
AUC(0-t) [1, 2]: 1550 ng·h/mL
Cmax [1, 2]: 2780 ng/mL
Tmax [1, 2]: 0.25 h
half-life ([1]; male, SD, rat, plasma, po, intragastric administration 20 mg/kg, read-out: Terminal T1/2 (converted)): 6.84 h
absorption after oral administration compared with Elafibranor (in words) ([1]; oral administration): good absorption
blood exposure after oral administration compared with Elafibranor (in words) ([1]; oral administration): highly effective blood exposure
half-life after oral administration compared with Elafibranor (in words) ([1]; oral administration): significantly prolonged half-life
Structure (SMILES): COc1ccc2cc(C(=O)/C=C/c3cc(C)c(OC(C)(C)C(=O)O)c(C)c3)oc2c1 [Compound 43, (E)-2-(4-(3-(6-methoxybenzofuran-2-yl)-3-oxoprop-1-en-1-yl)-2,6-dimethylphenoxy)-2-methylpropanoic acid]
